Results taken from US20250367209A1 (SOUTHERN RESEARCH INSTITUTE, priority 2022, published 2025).
Read-outs that look alike come from different tables or passages of the source.

How the values were obtained:
[1] = molecular target: Tau-FynSH3 interaction (Homo sapiens (Human), UniProt P10636); test: Tau-FynSH3 AlphaScreen; format: binding
Procedure, shortened: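 Purified GST-Fyn-SH3-Strep and His-tagged human 4R2N Tau-Strep from E. coli, tested by AlphaScreen with glutathione donor and nickel chelate acceptor beads in Bis-Tris pH 7.0, TCEP, casein, Tween-20. Compound preincubated 30 min with first protein at 600 nM, then second protein 30 min, then beads 2 h.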

[2] = molecular target: Tau-Fyn interaction (Homo sapiens (Human), UniProt P10636); test: Tau-Fyn PLA screening in HEK-293 cells; format: cell-based; settings: for Tau-Fyn interaction in cells, Tau-Fyn PLA in HEK-293 cells: compound 15 μM, 24 hours; for PLA: Table 3, Tau-Fyn PLA
Tau-Fyn interaction, sequence (P10636 other isoform, or with tags, fused parts or gaps): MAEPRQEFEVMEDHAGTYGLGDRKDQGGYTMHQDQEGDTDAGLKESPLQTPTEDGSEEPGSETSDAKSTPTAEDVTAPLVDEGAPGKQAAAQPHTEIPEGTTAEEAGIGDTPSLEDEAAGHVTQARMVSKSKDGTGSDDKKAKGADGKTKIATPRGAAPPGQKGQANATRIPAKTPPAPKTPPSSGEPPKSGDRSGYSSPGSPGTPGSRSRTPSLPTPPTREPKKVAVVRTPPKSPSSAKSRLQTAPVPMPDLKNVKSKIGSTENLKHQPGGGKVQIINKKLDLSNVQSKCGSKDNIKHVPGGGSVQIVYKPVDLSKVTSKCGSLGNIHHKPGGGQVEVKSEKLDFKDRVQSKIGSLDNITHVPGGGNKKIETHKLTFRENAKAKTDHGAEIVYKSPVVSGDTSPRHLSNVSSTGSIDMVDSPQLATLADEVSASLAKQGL
Protocol: Tau-Fyn PLA screening in HEK-293 cells: For Tau-Fyn PLA in HEK-293 cells, we used the same plasmids as before (Rush, et al. (2020) Neurobiol Dis 134, 104668): human 4R2N Tau with an N-terminal mKate2 tag in a pcDNA3.1 vector and human Fyn with an N-terminal Myc tag in a pCMV-Sport6 vector grown in Stellar E. coli. HEK-293 cells were plated on coverslips coated with PDL and laminin in a 24-well plate in DMEM supplemented with 10% FBS and 1% PenStrep. Cells were transfected with 125 ng of Tau-mKate2 and Fyn plasmids with 1.5 μL Fugene in plain DMEM. After 24 hours, compound was applied at 15 μM. Twenty-four hours after application, cells were fixed. PLA protocol was the same as above except for different primary antibodies (Tau5 1:500, Fyn3 1:250). After image acquisition, PLA density was calculated as PLA puncta (as above) divided by cell area to account for differences in confluency. Cell area was defined with ImageJ as % Area after theresholding Tau-mKate2 fluorescence because it filled the cells evenly. Puncta/cell area was then normalized to vehicle-treated slides from that experiment.

[3] = Table 2, Tau-FynSH3 inhibitory activity in the AlphaScreen, read-out: IC50
[4] = Table 3, read-out: Alpha screen IC50

Tau-FynSH3 interaction, sequence (P10636 other isoform, or with tags, fused parts or gaps): as above

## O=C(CN1CCOc2ccccc21)Nc1nnc(-c2ccccn2)[nH]1 [compound no. 69]
[1]
  AlphaScreen activity (in words): submicromolar activity
[2]
  Tau-Fyn interaction in cells, Tau-Fyn PLA in HEK-293 cells: reduced Tau-Fyn interaction in cells

## O=C(CCN1C(=O)CSc2ccccc21)Nc1nnc(-c2ccccn2)[nH]1 [compound no. 55]
[1]; [3]
  IC50: 5000 nM
[2]
  Tau-Fyn interaction in cells, Tau-Fyn PLA in HEK-293 cells: reduced Tau-Fyn interaction in cells

## O=C(CN1C(=O)CSc2cc(F)ccc21)Nc1nnc(-c2ccccn2)[nH]1 [compound no. 12, 2-(7-FLUORO-3-oxo-2H-BENZO[B][1,4]THIAZIN-4(3H)-YL)-N-(5-(PYRIDIN-2-YL)-4H-1,2,4-TRIAZOL-3-YL)ACETAMIDE]
[1]
  AlphaScreen activity (in words): submicromolar IC50
[1]; [3]
  IC50: 990 nM
[2]
  PLA: Active
  Tau-Fyn interaction in cells, Tau-Fyn PLA in HEK-293 cells: reduced Tau-Fyn interaction in cells

## O=C(CN1CCOc2ccccc21)Nc1nnc(-c2ccccn2)[nH]1 [compound 47, 2-(2,3-DIHYDRO-4H-BENZO[B][1,4]OXAZIN-4-YL)-N-(5-(PYRIDIN-2-YL)-4H-1,2,4-TRIAZOL-3-YL)ACETAMIDE]
[1]; [3]
  IC50: 320 nM
[1]; [4]
  IC50: 910 nM
[2]
  PLA: Active

## O=C(CN1CCCc2ccccc21)Nc1nnc(-c2ccccn2)[nH]1 [compound no. 45, 2-(3,4-DIHYDROQUINOLIN-1(2H)-YL)-N-(5-(PYRIDIN-2-YL)-4H-1,2,4-TRIAZOL-3-YL)ACETAMIDE]
[1]; [3]
  IC50: 1250 nM
[2]
  PLA: Active
  Tau-Fyn interaction in cells, Tau-Fyn PLA in HEK-293 cells: reduced Tau-Fyn interaction in cells

## Cc1ccc2c(c1)SCC(=O)N2CC(=O)Nc1nnc(-c2ccccn2)[nH]1 [compound no. 23, 2-(7-METHYL-3-OXO-2H-BENZO[B][1,4]THIAZIN-4(3H)-YL)-N-(5-(PYRIDIN-2-YL)-4H-1,2,4-TRIAZOL-3-YL)ACETAMIDE]
[1]; [3]
  IC50: 790 nM
[2]
  PLA: Active
  Tau-Fyn interaction in cells, Tau-Fyn PLA in HEK-293 cells: reduced Tau-Fyn interaction in cells

## O=C(CN1C(=O)CSc2cc(F)c(F)cc21)Nc1nnc(-c2ccccn2)[nH]1 [compound no. 14, 2-(6,7-DIFLUORO-3-OXO-2H-BENZO[B][1,4]THIAZIN-4(3H)-YL)-N-(5-(PYRIDIN-2-YL)-4H-1,2,4-TRIAZOL-3-YL)ACETAMIDE]
[1]; [4]
  IC50: 900 nM
[2]
  PLA: Inactive
  Tau-Fyn interaction in cells, Tau-Fyn PLA in HEK-293 cells: did not reduce Tau-Fyn interaction in cells

## O=C(CN1CCSc2ccccc21)Nc1nnc(-c2ccccn2)[nH]1 [compound no. 20, 2-(2H-BENZO[B][1,4]THIAZIN-4(3H)-YL)-N-(5-(PYRIDIN-2-YL)-4H-1,2,4-TRIAZOL-3-YL)ACETAMIDE]
[1]; [3]
  IC50: 550 nM
[1]; [4]
  IC50: 552 nM
[1]; unit printed as 'M', Table 2 gives 0.55 μM, read-out: IC50, inhibition in the AlphaScreen
  IC50: 550 nM

## O=C(CN1C(=O)CSc2cc(Cl)ccc21)Nc1nnc(-c2ccccn2)[nH]1 [compound no. 13, 2-(7-CHLORO-3-OXO-2H-BENZO[B][1,4]THIAZIN-4(3H)-YL)-N-(5-(PYRIDIN-2-YL)-4H-1,2,4-TRIAZOL-3-YL)ACETAMIDE]
[1]; [4]
  IC50: 930 nM
[2]
  PLA: Active
  Tau-Fyn interaction in cells, Tau-Fyn PLA in HEK-293 cells: reduced Tau-Fyn interaction in cells
